In ChEMBL document CHEMBL1777693, “New halogenated phenylcoumarins as tyrosinase inhibitors” (Bioorg Med Chem Lett, 2011):

molecular target: T1, Tyrosinase (Agaricus bisporus, UniProt O42713); test: Inhibition of mushroom tyrosinase using L-3,4- dihydroxyphenylalanine as substrate measured for 5 mins by spectrophotometric analysis
T1 sequence (O42713 whole entry): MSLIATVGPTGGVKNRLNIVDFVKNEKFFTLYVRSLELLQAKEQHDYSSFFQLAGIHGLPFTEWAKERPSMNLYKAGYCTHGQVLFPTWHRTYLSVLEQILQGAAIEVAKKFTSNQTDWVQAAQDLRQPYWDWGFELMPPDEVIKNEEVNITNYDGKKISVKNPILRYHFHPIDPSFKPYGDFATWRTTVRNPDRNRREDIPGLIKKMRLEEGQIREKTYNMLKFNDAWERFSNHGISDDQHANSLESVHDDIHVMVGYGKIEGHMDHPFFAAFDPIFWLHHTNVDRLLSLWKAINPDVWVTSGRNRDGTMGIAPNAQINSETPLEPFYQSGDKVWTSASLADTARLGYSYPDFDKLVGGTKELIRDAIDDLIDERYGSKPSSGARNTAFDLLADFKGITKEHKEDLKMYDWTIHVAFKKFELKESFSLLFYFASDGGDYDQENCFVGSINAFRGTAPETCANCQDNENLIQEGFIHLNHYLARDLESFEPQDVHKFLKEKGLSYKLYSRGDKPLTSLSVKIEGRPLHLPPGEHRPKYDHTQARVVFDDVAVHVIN

Row | SMILES | IC50
1 | O=c1oc2c(O)cccc2cc1-c1ccccc1 | > 5000 µM
2 | CCOc1cccc2cc(-c3ccccc3)c(=O)oc12 | 2070 µM
3 | O=c1oc2c(O)cc(Br)cc2cc1-c1ccccc1 | 302 µM
4 | O=c1oc2c(O)cccc2cc1-c1ccc(O)cc1 | 1300 µM
5 | CCOc1cccc2cc(-c3ccc(OC)cc3)c(=O)oc12 | > 5000 µM
6 | COc1cc(Br)cc2cc(-c3ccccc3)c(=O)oc12 | > 5000 µM
7 | COc1ccc(-c2cc3cc(Br)cc(OC)c3oc2=O)cc1 | 1360 µM
8 | O=c1oc2c(O)cc(Br)cc2cc1-c1ccc(O)cc1 | 215 µM

molecular target: T2, Tyrosinase (Homo sapiens, UniProt P14679); test: Inhibition of tyrosinase
T2 sequence (P14679 whole entry): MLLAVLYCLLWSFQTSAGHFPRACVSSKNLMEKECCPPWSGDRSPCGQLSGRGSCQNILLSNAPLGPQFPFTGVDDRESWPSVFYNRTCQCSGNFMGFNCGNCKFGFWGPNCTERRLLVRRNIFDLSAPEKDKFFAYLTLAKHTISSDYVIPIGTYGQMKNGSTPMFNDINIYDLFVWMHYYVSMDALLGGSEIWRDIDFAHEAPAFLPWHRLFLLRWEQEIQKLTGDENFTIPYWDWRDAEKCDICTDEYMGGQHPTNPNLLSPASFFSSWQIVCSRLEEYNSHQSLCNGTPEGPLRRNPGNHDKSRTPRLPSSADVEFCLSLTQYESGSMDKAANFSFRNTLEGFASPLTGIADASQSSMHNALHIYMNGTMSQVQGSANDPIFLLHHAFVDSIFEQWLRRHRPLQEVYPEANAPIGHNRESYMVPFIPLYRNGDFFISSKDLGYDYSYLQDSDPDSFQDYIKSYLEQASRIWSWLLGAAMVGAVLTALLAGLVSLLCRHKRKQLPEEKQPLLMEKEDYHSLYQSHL

Row | SMILES | IC50
9 | O=c1oc2cc(O)ccc2cc1-c1ccccc1 | > 10000 µM
10 | O=c1ccc2ccc(O)cc2o1 [UMBELLIFERONE] | 420 µM
11 | Oc1ccc(/C=C/c2cc(O)cc(O)c2)cc1 [RESVERATROL] | 3680 µM
12 | O=c1oc2cc(O)ccc2cc1-c1cc(O)cc(O)c1 | > 10000 µM

molecular target: T1, Tyrosinase; test: Non-competitive inhibition of mushroom tyrosinase using L-3,4- dihydroxyphenylalanine as substrate by Lineweaver-Burk double reciprocal plot analysis

Row | SMILES | Ki
13 | O=c1oc2c(O)cc(Br)cc2cc1-c1ccc(O)cc1 | 189 µM
